From PMC9034021 (RSC Advances, 2021)

Tests used:
[1] = molecular target: AChE (from Electrophorus electricus) (Electrophorus electricus, UniProt O42275); test: biochemical; format: biochemical
[2] = molecular target: BuChE (from equine serum) (Equus caballus, UniProt P81908); test: BuChE inhibitory activity, Ellman's method with slight modification; format: biochemical
BuChE (from equine serum), sequence (P81908 whole entry): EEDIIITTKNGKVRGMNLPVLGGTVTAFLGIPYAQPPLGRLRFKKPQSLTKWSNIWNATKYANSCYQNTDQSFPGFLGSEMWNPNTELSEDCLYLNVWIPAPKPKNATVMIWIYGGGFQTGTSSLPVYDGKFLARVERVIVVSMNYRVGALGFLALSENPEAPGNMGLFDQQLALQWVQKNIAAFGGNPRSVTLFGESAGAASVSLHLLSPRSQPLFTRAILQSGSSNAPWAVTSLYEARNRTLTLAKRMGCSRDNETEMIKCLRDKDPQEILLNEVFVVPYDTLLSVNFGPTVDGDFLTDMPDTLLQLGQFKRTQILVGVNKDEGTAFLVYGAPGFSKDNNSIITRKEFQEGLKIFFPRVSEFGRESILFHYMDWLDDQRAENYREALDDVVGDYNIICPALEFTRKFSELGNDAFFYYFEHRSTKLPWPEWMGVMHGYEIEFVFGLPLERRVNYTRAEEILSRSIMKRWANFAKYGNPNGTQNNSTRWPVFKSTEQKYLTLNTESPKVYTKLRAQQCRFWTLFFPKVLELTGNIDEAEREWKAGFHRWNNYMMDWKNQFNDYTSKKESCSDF

AChE (from Electrophorus electricus), sequence (O42275 24-633): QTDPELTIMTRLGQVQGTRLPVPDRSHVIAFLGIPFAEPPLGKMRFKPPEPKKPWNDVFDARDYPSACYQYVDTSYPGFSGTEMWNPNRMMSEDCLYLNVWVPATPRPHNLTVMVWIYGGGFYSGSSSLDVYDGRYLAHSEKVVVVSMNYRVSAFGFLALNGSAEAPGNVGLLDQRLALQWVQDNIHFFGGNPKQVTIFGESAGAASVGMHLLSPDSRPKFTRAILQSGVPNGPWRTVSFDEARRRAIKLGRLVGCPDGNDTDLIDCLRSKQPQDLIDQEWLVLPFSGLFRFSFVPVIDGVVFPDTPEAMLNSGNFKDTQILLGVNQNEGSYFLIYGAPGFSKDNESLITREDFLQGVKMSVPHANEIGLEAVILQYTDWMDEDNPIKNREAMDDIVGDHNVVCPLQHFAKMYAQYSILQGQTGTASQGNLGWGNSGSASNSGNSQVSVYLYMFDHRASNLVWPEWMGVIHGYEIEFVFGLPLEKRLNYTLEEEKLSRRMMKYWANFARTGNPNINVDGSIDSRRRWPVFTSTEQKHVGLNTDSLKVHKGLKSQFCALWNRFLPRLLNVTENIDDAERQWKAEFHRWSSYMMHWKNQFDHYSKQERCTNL

Compound | IC50 [1] [µM] | IC50 [2] [µM] | also measured
COc1cc2c(cc1O)CC[n+]1cc3c(OC)c(OC)ccc3cc1-2 [Compound 18, jatrorrhizine] | 12.3 ± 0.44 | 31.46 ± 0.2 | –
COc1cc2c(cc1OC)-c1c3c(cc4ccnc(c14)C2=O)OCO3 [Compound 35, dicentrinone] | 265.8 ± 0.8 | – | –
COc1cc2c(cc1OC)[C@@H]1Cc3ccc(OC)c(OC)c3CN1CC2 [Compound 14, tetrahydropalmatine] | – | 65.3 ± 0.8 | –
COc1cc2cc3c4c(cc5c(c4c2cc1OC)OCO5)CCN3C [Compound 42, dehydrodicentrine] | – | – | anti-BuChE activity, fold increase of the dehydroaporphine ([2]; relative to the aporphine group, comparator not named): 4.7 fold
COC1=C[C@]23CCN(C)[C@H](Cc4ccc(OC)c(O)c42)C3=CC1=O [Compound 45, salutaridine] | 7.49 ± 0.66 | – | –
CN1CCc2cc3c(c4c2C1Cc1ccccc1-4)OCO3 (stereo not shown) [Compound 22, roemerine] | 8.32 ± 0.12 | 2.85 ± 0.08 | BuChE inhibition, fold more active than galanthamine [2]: approximately 1.3 fold
COc1cc2c(cc1O)[C@@H]1Cc3ccc(O)c(OC)c3CN1CC2 [Compound 12, stepholidine] | – | 221.2 ± 1.62 | –
COc1cc2c(cc1O)C(Cc1ccc(O)cc1)NCC2 (stereo not shown) [Compound 44, coclaurine] | 40.9 ± 0.67 | 20.5 ± 0.42 | –
COc1ccc2c(c1OC)CC1c3c(cc4c(c3-2)OCO4)CCN1C (stereo not shown) [Compound 25, crebanine] | 17.4 ± 0.22 | 10.5 ± 0.27 | anti-AChE activity, fold less active than the 9,10-dimethoxy analogue 26 [1]: 2.8 fold; anti-BuChE activity, fold higher than that of 26 [2]: 2.5 fold
